From patent US20050239152A1, “Continuous-flow enzyme assay” (Kiadis B.V., priority 2002, published 2005)

Experiments:
[1] = target: T1, Cathepsin B (E.C. 3.4.22.1, from bovine spleen) (Bos taurus, UniProt P07688); assay: LC-continuous-flow (LC-CF) ESI-TOF-MS cathepsin B assay, substrate Z-FR-AMC; conditions: LC-CF system, FIG. 8; mixture injected, E64 40 μM, CA-074 90 μM
Experimental: For the HPLC screening, solutions were prepared as described herein-above and filled in superloops. Used concentrations were 30 nM cathepsin B and 6 μM internal standard 1, and 50 μM Z-FR-AMC and 6 μM internal standard 2, for superloop 1 and superloop 2, respectively. Injected inhibitors: E64 and CA074, which were in mixture injected (E64: 40 μM; CA-074: 90 μM). […] Compounds injected via an autoinjector were separated by the LC-column, using a binary gradient system consisting of carrier solution and methanol. In order to reduce the amount of methanol that was necessary for separation, a makeup solution was added to the column effluent, resulting in a constant methanol concentration of 10%. Decreasing the concentration of methanol was necessary to prevent enzyme degradation. […] In the LC-CF system, both the enzyme solution and the substrate solution were delivered at a flow rate of 50 μL/min, resulting in a total flow rate of 100 μL/min into the mass spectrometer.
The RP-separation was performed by a binary gradient system, using water and methanol. The organic modifier, however, decreases the activity of enzymes. For this reason, a makeup flow was added after the LC-column (see FIG. 5) to reduce the concentration of methanol. […] This flow was used as the carrier solvent that was pumped into the continuous-flow system. […]

[2] = target: T1, Cathepsin B (E.C. 3.4.22.1, from bovine spleen); conditions: FI-CF system, FIG. 7; antipain compared with E64
Experimental: The enzymatic assay was performed in a continuous-flow ESI-TOF-MS system where the enzyme cathepsin B and the substrate Z-FR-AMC were subsequently added to the carrier solution of a flow injection system simulating the effluent of an LC column. As a consequence, cathepsin B was continuously incubated with Z-FR-AMC, resulting in a continuous supply of converted substrate. The product was pumped into the mass spectrometer and monitored. Various compounds were injected into the continuous-flow system, incubated with the enzyme in a reaction coil and subsequently pumped into the mass spectrometer. […]
More in detail, samples were analyzed by two different continuous-flow (CF) systems, which both consisted of a homogeneous bioassay coupled to a Micromass (Wythenshawe, UK) Q-Tof micro mass spectrometer. […] The amount of formed product was determined by MS, which was equipped with a Micromass Z-spray electrospray ionization (ESI) source. […]
Carrier solution (20 μL/min) was mixed continuously with cathepsin B solution (10 μL/min) in reaction coil A for 40 sec, and carrier/cathepsin B solution with Z-FR-AMC solution (30 μL/min) in reaction coil B for 45 sec. The resulting flow (40 μL/min) coming out of reaction coil B was pumped into the mass spectrometer, where the amount of formed product was directly monitored by ESI-TOF-MS. […]

negative peak in product mass trace after LC separation [1]: caused by inhibition
injected concentration giving more or less the same area of negative peaks [2]: 0.50 µM
Structure (SMILES): CC(C)C[C@H](NC(=O)[C@H]1O[C@@H]1C(=O)O)C(=O)NCCCCN=C(N)N (relative stereo) [E64, trans-epoxysuccinyl-L-leucylamido-(4-guanidino)butane]
